Values belong to the compound of their own block, whether it stands above or below them.
Test: photoluminescence quantum yield (fraction); solvent given as SMILES

photoluminescence quantum yield (in CCCO): 0.017
Compound: CCOC(=O)c1ccc2c(c1)[nH]c1c3ccc(C(=O)OCC)cc3[se]c21

photoluminescence quantum yield (in C1CCOC1): 0.42 | photoluminescence quantum yield (in CC#N): 0.26 | photoluminescence quantum yield (in CO): 0.16 | photoluminescence quantum yield (in ClCCl): 0.34
Compound: Clc1ccc(/C=C/c2ccc(-c3nc4c5cccnc5c5ncccc5c4[nH]3)cc2)cc1

photoluminescence quantum yield (in ClCCl): 0.76
Compound: COc1cc(-c2cnc(-c3ccncc3)o2)cc(OC)c1OC

photoluminescence quantum yield (in ClCCl): 0.027
Compound: CC1CCC(=CS/C=C/c2ccc(/C=C/SC=C3CCC(C)CC3)cc2)CC1 (configuration not stated)

photoluminescence quantum yield (in ClCCl): 0.025
Compound: O=Cc1ccc(/C=C/c2nc(N3CCOCC3)c3c([n+]2[O-])CCCC3)cc1

photoluminescence quantum yield (in CC#N): 0.97 | photoluminescence quantum yield (in CCCCCC): 0.18 | photoluminescence quantum yield (in CO): 0.35 | photoluminescence quantum yield (in CS(C)=O): 0.87 | photoluminescence quantum yield (in ClC(Cl)Cl): 0.2
Compound: CCC1=C(C)C2=Cc3cscc3B(O)N2C1=O

photoluminescence quantum yield (in C1CCOC1): 0.045
Compound: N#C/C(=C\c1ccc(C=C(c2ccccc2)c2ccccc2)cc1)c1ccccc1

photoluminescence quantum yield (in ClCCl): 0.27
Compound: c1ccc(B2Nc3cc4c(cc3-c3sc5ccccc5c32)NB(c2ccccc2)c2c-4sc3ccccc23)cc1

photoluminescence quantum yield (in ClCCl): 0.03
Compound: CC(C)(C)c1ccc2c3ccccc3c3cncnc3c2c1

photoluminescence quantum yield (in CCO): 0.007
Compound: CCOC(=O)c1cc(C(=O)OCC)c2ccc(O)cc2n1

photoluminescence quantum yield (in CC#N): 0.42 | photoluminescence quantum yield (in ClCCl): 0.46
Compound: COc1ccc(-c2cc3c(s2)c(-c2ccccc2)cc(=O)n3C)cc1

More lines, now with the values behind:

Compound: COc1ccc(-c2nc(-c3ccc(-c4nc(-c5ccc(OC)cc5)c(-c5ccc(OC)cc5)[nH]4)s3)[nH]c2-c2ccc(OC)cc2)cc1
photoluminescence quantum yield (in CC#N): 0.62

Compound: COc1ccc(-c2sc3c(-c4ccc(OC)cc4)c4n(c3c2-c2ccc(OC)cc2)[B-](F)(F)[N+]2=Cc3c(-c5ccc(OC)cc5)c5sc(-c6ccc(OC)cc6)c(-c6ccc(OC)cc6)c5n3[B-](F)(F)[N+]2=C4)cc1
photoluminescence quantum yield (in CC#N): 0.36 | photoluminescence quantum yield (in CCCCCC): 0.46 | photoluminescence quantum yield (in CN(C)C=O): 0.32 | photoluminescence quantum yield (in Cc1ccccc1): 0.51 | photoluminescence quantum yield (in ClCCl): 0.5

Compound: CC(C)(C)c1ccc2c(c1)Cc1cc(C(C)(C)C)ccc1-2
photoluminescence quantum yield (in C1CCCCC1): 0.7

Compound: CC1(C)c2ccccc2N(c2ccc3nc4c5ccc(N6c7ccccc7C(C)(C)c7ccccc76)cc5c5cc(N6c7ccccc7C(C)(C)c7ccccc76)ccc5c4nc3c2)c2ccccc21
photoluminescence quantum yield (in c1cc(-c2cccc(-n3c4ccccc4c4ccccc43)c2)cc(-n2c3ccccc3c3ccccc32)c1): 0.89

Compound: N#Cc1c(-n2c3ccccc3c3ccccc32)c(-n2c3ccccc3c3ccccc32)cc(-n2c3ccccc3c3ccccc32)c1-n1c2ccccc2c2ccccc21
photoluminescence quantum yield (in Cc1ccccc1): 0.49

Compound: CC(=O)Nc1ccc2ccc3cccc4ccc1c2c34
photoluminescence quantum yield (in CC#N): 0.23 | photoluminescence quantum yield (in CCCCOCCCC): 0.27 | photoluminescence quantum yield (in CO): 0.13

Compound: C[Si](C)(c1ccc2cc3ccccc3cc2c1)[Si](C)(C)c1ccc2cc3ccccc3cc2c1
photoluminescence quantum yield (in C1CCCCC1): 0.18 | photoluminescence quantum yield (in CC#N): 0.04

Compound: COc1cc(OC)cc(-c2ccc(-c3ccc(C#N)s3)s2)c1
photoluminescence quantum yield (in C1CCCCC1): 0.09 | photoluminescence quantum yield (in C1COCCO1): 0.09 | photoluminescence quantum yield (in CC#N): 0.11 | photoluminescence quantum yield (in CC(C)O): 0.1 | photoluminescence quantum yield (in CCCCO): 0.1 | photoluminescence quantum yield (in CCO): 0.1 | photoluminescence quantum yield (in CCOC(C)=O): 0.09 | photoluminescence quantum yield (in CN(C)C=O): 0.12 | photoluminescence quantum yield (in CO): 0.1 | photoluminescence quantum yield (in CS(C)=O): 0.16 | photoluminescence quantum yield (in Cc1ccccc1): 0.09 | photoluminescence quantum yield (in ClC(Cl)Cl): 0.1 | photoluminescence quantum yield (in ClCCl): 0.09 | photoluminescence quantum yield (in O): 0.02

Compound: CCN(CC)c1ccc2cc(/C=C3\CCCc4c3[o+]c3cc(N(CC)CC)ccc3c4-c3ccccc3C(=O)O)c(=O)oc2c1
photoluminescence quantum yield (in ClCCl): 0.07

Compound: CC1(C)CC(=O)C2=C(C1)Oc1ccc3cc(O)ccc3c1C2c1ccccn1 (configuration not stated)
photoluminescence quantum yield (in C1CCOC1): 0.062 | photoluminescence quantum yield (in C1COCCO1): 0.028 | photoluminescence quantum yield (in CC#N): 0.082 | photoluminescence quantum yield (in CCCCCCC): 0.05 | photoluminescence quantum yield (in CCO): 0.067 | photoluminescence quantum yield (in CO): 0.066 | photoluminescence quantum yield (in O): 0.38

Compound: COc1ccc2cc(C3=[N+]4C(=Nc5c(-c6ccccc6)cc(-c6ccc7cc(OC)ccc7c6)n5[B-]4(F)F)C(c4ccccc4)=C3)ccc2c1
photoluminescence quantum yield (in ClC(Cl)Cl): 0.33 | photoluminescence quantum yield (in ClCCl): 0.33

Source: the Deep4Chem optical property database
